Measurements as given in US20110195404A1, “SYSTEMS AND METHODS FOR DETERMINING CALCIUM LEVELS” (priority 2010, published 2011).
Where “and” joins values, the source holds several entries; their conditions need not be identical. Equal values may be shown once.

Legend:
[1] = target: T1, α-amylase (Homo sapiens, UniProt P0DUB6); test: α-Amylase inhibition saliva screening (2-chloro-p-nitrophenol-maltotriose substrate, absorbance 405 nm); assay type: biochemical; conditions: 37° C.; for α-amylase assay reading (absorbance at 405 nm), single replicate: test compound prepared at 5,000 ppm
T1 sequence (P0DUB6 16-511): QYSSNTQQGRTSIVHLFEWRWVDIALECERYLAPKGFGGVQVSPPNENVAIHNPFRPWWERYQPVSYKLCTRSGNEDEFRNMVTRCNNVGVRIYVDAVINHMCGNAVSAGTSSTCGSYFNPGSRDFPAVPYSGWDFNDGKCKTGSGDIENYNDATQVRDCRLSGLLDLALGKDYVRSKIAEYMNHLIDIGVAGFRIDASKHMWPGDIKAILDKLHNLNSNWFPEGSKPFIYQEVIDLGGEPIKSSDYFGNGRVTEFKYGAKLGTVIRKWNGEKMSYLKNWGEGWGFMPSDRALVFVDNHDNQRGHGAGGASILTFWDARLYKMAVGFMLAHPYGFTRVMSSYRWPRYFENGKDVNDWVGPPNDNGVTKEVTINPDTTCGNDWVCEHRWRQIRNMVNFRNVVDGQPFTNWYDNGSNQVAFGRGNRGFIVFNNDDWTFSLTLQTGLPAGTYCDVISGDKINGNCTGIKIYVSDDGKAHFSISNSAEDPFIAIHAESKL
Description: Enzymatic activity of α-amylase on the substrate yields 2-chloro-p-nitrophenol, which can be measured spectrophotometrically at 405 nm. The amount of α-amylase activity present in the experimental sample is directly proportional to the increase in absorbance at 405 nm.

[2] = target: T2, Lysozyme (Homo sapiens, UniProt P61626); test: Lysozyme inhibition saliva screening (fluorescein-labeled Micrococcus lysodeikticus); assay type: biochemical
T2 sequence (P61626 19-148): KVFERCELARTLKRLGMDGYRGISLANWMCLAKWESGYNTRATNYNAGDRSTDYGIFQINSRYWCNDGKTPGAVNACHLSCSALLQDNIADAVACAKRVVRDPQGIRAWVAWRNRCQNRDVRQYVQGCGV
Description: The assay measures lysozyme activity on Micrococcus lysodeikticus cell walls, which are labeled to such a degree that the fluorescence is quenched. Lysozyme activity can relieve this quenching; yielding increased fluorescence that is proportional to lysozyme activity.

## Aluminum sulfate hydrate [CDI-34]
[1]; 0 min, 5,000 ppm
  α-amylase assay reading, Ave: 0.40
[1]; 0 min, sulfate hydrate
  α-amylase assay reading (absorbance at 405 nm), single replicate: 0.40 (2×) and 0.36 and 0.45
[1]; 5 min, 5,000 ppm
  α-amylase assay reading, Ave: 0.50
[1]; 5 min, sulfate hydrate
  α-amylase assay reading (absorbance at 405 nm), single replicate: 0.49 and 0.50 (2×) and 0.52
[1]; 15 min, 5,000 ppm
  α-amylase assay reading, Ave: 0.56
[1]; 15 min, sulfate hydrate
  α-amylase assay reading (absorbance at 405 nm), single replicate: 0.53 and 0.61 and 0.54 and 0.56

## CC(=O)O [CDI-047, Acetic acid]
[2]; 100% saliva samples (data not shown)
  inhibition of Lysozyme: inhibit Lysozyme
[2]; dilute (3.5%) saliva, FIG. 12
  Lysozyme Inhibitor Activity: Lysozyme Inhibitor Activity

## Aluminum potassium sulfate dodecahydrate [CDI-42]
[1]; 0 min, 5,000 ppm
  α-amylase assay reading, Ave: 0.92
[1]; 0 min
  α-amylase assay reading (absorbance at 405 nm), single replicate: 0.80 and 0.90 and 0.84
[1]; 5 min
  α-amylase assay reading (absorbance at 405 nm), single replicate: 1.80
